Entries after “also recorded” stand apart in the source; their conditions may differ.

The values below come from article PMC3677654, “Soy Glycinin Contains a Functional Inhibitory Sequence against Muscle-Atrophy-Associated Ubiquitin Ligase Cbl-b” (International Journal of Endocrinology, 2013).

In assay [1] the test system is interaction between Cbl-b and IRS-1. Briefly: Interaction between Cbl-b and IRS-1 in HEK293 cells (co-immunoprecipitation). Type of assay: cell-based, human Cbl-b, rat IRS-1. The note with it: 120 μM, anti-IRS-1 immunoprecipitates. The method, then:
(§1) HEK293 cells (40–60% of confluence) were transfected with plasmid vectors, using Hily Max lipofection reagent (DOJINDO, Kumamoto, Japan), as described previously. The expression plasmids used in this study were pCEFL-human Cbl-b-HA, pcDNA3.1-rat IRS-1-V5, and pcDNA3-FLAG-Ubiquitin.
(§2) Immunoblot and immunoprecipitation analyses were performed as described previously. The following antibodies were used: anti-actin (Calbiochem, La Jolla, CA, USA), anti-HA.11 (BabCo, Richmond, CA, USA), anti-V5 (Invitrogen, Carlsbad, CA, USA), anti-FLAG M2 (Sigma, St. Louis, MO, USA), anti-IRS-1 (Upstate Biotechnology, Lake Placid, NY, USA), anti-Akt-1 (PharMingen International, Tokyo), and anti-phospho-S^473-Akt-1 (Cell Signaling Technology, Beverly, MA, USA).
Figure 3 Inhibitory effect of Cblin-like synthetic peptide on Cbl-b-mediated degradation and ubiquitination of IRS-1. HEK293 cells were transfected with mock vector/pCEFL-Cbl-b-HA, pcDNA3.1-rat IRS-1-V5, and pcDNA3-FLAG-Ubiquitin and then treated with 100 nM epoxomicin at 2 hours before treatment with each peptide at the indicated concentrations. One hour later, these cells were treated with 10 ng/mL IGF-1 for 1 hour. Immunoprecipitates (IP) from whole cell lysates incubated with an anti-IRS-1 antibody were subjected to immunoblot (IB) analysis for the indicated proteins. […]

In assay [2] the test system is Cbl-b-mediated ubiquitination of IRS-1. The conditions noted are these: ref [4], cited from earlier work; for Inhibitory activity on Cbl-b-mediated IRS-1 ubiquitination: in words. An excerpt: These peptides were kindly provided by Fuji Oil Co. (Osaka, Japan). […] A patent application was lodged for the sequence of this peptide (Pat. no. 5113346).
In assay [3] the test system is denervated skeletal muscle of mice. The note with it: ref [4], cited from earlier work. An excerpt:
Therefore, we hypothesized that foodstuffs that contain Cblin-like amino acid sequence can be used to prevent unloading-induced muscle atrophy.

Assay [4] concerns Cbl-b-mediated ubiquitination of IRS-1. The assay is described as follows: Cbl-b-mediated IRS-1 ubiquitination in transfected HEK293 cells. Type of assay: cell-based, human Cbl-b, rat IRS-1. The note with it: 120 μM, 10 ng/mL IGF-1 for 1 h, 100 nM epoxomicin, immunoblot. The method, then:
HEK293 cells were maintained in Dulbecco's modified Eagle medium (DMEM) containing 10% fetal bovine serum, 100 U/mL penicillin, and 100 μg/mL streptomycin at 37°C under 5% CO2-[…] gas mixture.
as §1, §2
We used the following pentapeptides or hexapeptides derived from soy: soy-glycinin-derived peptide, soy-β-conglycinin-derived peptide, lipoprotein- (LP-) derived peptide, and soy protein isolate (SPI). These peptides were kindly provided by Fuji Oil Co. (Osaka, Japan). […] A patent application was lodged for the sequence of this peptide (Pat. no. 5113346). […] These peptides were kindly provided by Otsuka Pharmaceutical Co. (Tokushima, Japan). […]
(In general: Immunoblotting shows a protein as a band on a membrane.)

On to DGpYMP [Cblin], for which, in assay [1], the “Inhibition of interaction between Cbl-b and IRS-1” value was “inhibited IRS-1 ubiquitination and interaction between Cbl-b and IRS-1”. Further, in assay [2] (approximate), the IC50 was ~120 µM. Moreover, the “Inhibitory activity on Cbl-b-mediated IRS-1 ubiquitination” value in assay [2] was “exhibited inhibitory activity on Cbl-b-mediated IRS-1 ubiquitination; also recorded: inhibited Cbl-b-mediated ubiquitination and degradation of IRS-1 both in vitro and in vivo”. The “Prevention of denervation-induced muscle atrophy” value in assay [3] (mice) is “inhibited Cbl-b-mediated degradation of IRS-1, resulting in suppression of denervation-mediated muscle atrophy; also recorded: prevented denervation-induced muscle atrophy in mice”. For the same substance, the “Expression of MAFbx/atrogin-1” value in assay [3] was “inhibited Cbl-b-mediated IRS-1 ubiquitination and expression of MAFbx/atrogin-1”. Also, in assay [4], the “Inhibition of IRS-1 ubiquitination” value is given as “inhibited IRS-1 ubiquitination”.

Consider VGpYLR, for which, in assay [2], the “Inhibitory activity on Cbl-b-mediated IRS-1 ubiquitination” value is given as “no inhibitory activity against Cbl-b-mediated IRS-1 ubiquitination”.

Broadly, the IC50 is the concentration that gives 50% inhibition.
